According to US20170362590A1, “PHARMACEUTICAL COMPOSITIONS COMPRISING MICRORNA” (OREGON HEALTH & SCIENCE UNIVERSITY, priority 2016, published 2017):

Experiments:
[1] = system: HUVEC; assay: β-Gal senescence assay; type: cell-based, human; conditions: for senescence (β-galactosidase positive cells): 48 hours after transfection, relative to controls; for senescence phenotype in old HUVECs: high-passage HUVEC, β-galactosidase assay
Source text: After this time cells were washed whit cold PBS and then stain for β-galactosidase activity following manufacture protocol (Senescence Cells Histochemical Staining Kit, Sigma).

[2] = system: telomerase activity in HUVEC; assay: Telomerase activity assay; type: cell-based, human; conditions: 48 hours of ectopic expression
Experimental: […] Cells were lysed and processed according to the manufacturer's instructions (Quantitative Telomerase Detection Kit, Allied Biotech). The telomerase activity in the cell extract was determined through its ability to synthesize telomeric repeats onto an oligonucleotide substrate. The resulting products were subsequently amplified using the polymerase chain reaction (PCR).

[3] = system: HUVEC; assay: 3-D angiogenic sprouting assay (fibrin bead); type: cell-based; conditions: 3D-fibrinogen assay, co-culture with human aortic smooth muscle cells
Experimental: Early passage HUVECs were coated on cytodex-3 (GE Healthcare) beads at a density of 10 million cells/40 μl beads and incubated in suspension for 3-4 hours with gentle mixing every hour. They were plated on TC treated 6 well dishes overnight and resuspended in a 2 mg/ml fibrin gel with 200,000 human smooth muscle cells. The gel was allowed to polymerize and complete EGM-2 media was added. Sprouts were visualized from days 3-4 via confocal imaging after overnight incubation with FITC labeled Ulex europaeus lectin (Vector labs). Immunofluorescence imaging was performed on a Yokogawa CSU-W1 spinning disk confocal microscope with 20 0.45 Plan Fluor objective (Nikon).

[4] = system: MRE11a, RAD50, and NBN mRNAs; assay: miR-TRAP/RISC TRAP assay; type: cell-based; conditions: 293 T cells, 24 hours
Experimental: 293 T cells were co-transfected with a plasmid coding for a flag-tagged dominant negative […] mutant (Clontech) along with a control mimic, miR-99b or miR-494 mimic according to kit instructions. Twenty-four hours later the RNA protein complexes were crosslinked and the RISC complex was immunoprecipitated using an anti-FLAG antibody and RNA was isolated for quantitative real-time PCR of target genes. The fold enrichment was calculated using pre and post IP controls as well as normalization to the control mimic pull-downs.

[5] = system: 3'-UTRs of MRE11a, RAD50, and NBN; assay: 3'-UTR luciferase reporter assay in HEK-293T cells; type: cell-based, human; conditions: 24 hours cotransfection
Experimental: To determine targets of miR-99b and miR-494, the RNAs were ectopically expressed in HUVECs. Targets were analyzed using a DNA damage array 24 hours after transfection. Three common targets for miR-99b and miR-494 were identified: MRE11a, RAD50 and NBN. These three proteins form the MRN complex which is involved in homologous repair and non-homologous end joining. mRNA targets of miR-494 and miR-99b were also assessed using a miR-TRAP assay. […] Finally, the 3′-UTRs of MRE11a, RAD50, and NBN were cloned into luciferase reporter vectors. The luciferase vectors were contrasfected with miR-494 and miR99b into HEK-293T cells for 24 hours.
MRE11a Luciferase-3-UTR plasmid was purchased from SwitchGear Genomics. RAD50 and NBN luciferase constructs were purchased as pmiR-REPORT vector (Ambion). Luciferase assay reagents were purchased from Switch Gear Genomics and Promega.
Cells were transfected at 50-60% confluence using standard forward transfection protocols using RNAimax reagent (Life Technologies) for miRs/siRNAs and Lipofectamine 2000 for plasmid or plasmid RNA dual transfections. Typically 50 nM RNA and […] plasmid DNA were used for transfections. Target protectors were transfected at a concentration of 50 nM or equivalent to the miR amounts.

[6] = system: HUVEC; assay: HUVEC cell proliferation assay; type: cell-based, human; conditions: for proliferation relative to controls: HUVEC, overexpression for 48 hours; for proliferation in old HUVECs: high-passage HUVEC
[7] = system: HUVEC; assay: HUVEC apoptosis; type: cell-based, human; conditions: overexpression for 48 hours
[8] = system: p21; assay: Western blot of p21 in HUVEC; type: cell-based, human; conditions: HUVEC expressing the miRNAs
Experimental: (§1) After treatment, cells were washed in phosphate-buffered saline (PBS) and prepared in RIPA lysis buffer (Sigma) supplemented with Complete Protease inhibitor cocktail (ROCHE) and Phosphatase inhibitors cocktail 2 and 3 (Sigma). Cells were harvested by scraping, and proteins were analyzed by Western blot. Equivalent amounts of protein were loaded on a 4-12% gradient SDS-polyacrylamide gel (BioRAD) and transferred for 30 min to a TransBlot turbo (BioRAD) nitrocellulose membrane. Membranes were blocked in 5% milk or 3% BSA and incubated with antibodies as indicated: Mre11a (Cell Signaling, 4847, 1:1000), RAD50 (Cell Signaling, 3427, 1:1000), NBS1 (Cell Signaling, 14956, 1:500), p-ATM (Cell Signaling, 4526, 1:500), H2AX (Abcam 11174, 1:500), p21 (Cell Signaling, 2947, 1:1000), P-Rb (Cell Signaling, 9301, 1:500), ERK1/2 (Cell Signaling, 9102, 1:1000), P-ERK1/2 (9101, 1:1000). β-actin (Sigma, A5316, 1:10,000 1 h RT) was used as housekeeping controls for the total levels of protein loaded. Membranes were washed in TBST and incubated with secondary antibodies from Licor Biosciences were used goat anti mouse 925-68020 (1:15,000) and goat anti rabbit 925-32211 (1:15,000). Blots were scanned on the Licor Odyssey scanner according to manufacturer's instructions.

[9] = system: CD44; assay: CD44 expression (Human Senescence gene array); type: cell-based; conditions: HUVEC
Experimental: (§2) Total RNA and microRNA were isolated using miRVana microRNA isolation kit (Ambion). Reverse transcription was performed using TaqMan™ Advanced cDNA Synthesis Kit (Life Tech) according to the manufacture instructions. RT-PCR was performed using multiplexed TaqMan primers (Applied Biosystems). The relative quantification of gene expression was determined using the 2-DDCtmethod. Using this method, we obtained the fold changes in gene expression normalized to an internal control gene, GAPDH or U6 snRNA, respectively. A DNA damage array (LifeTech) was used for targeting analysis and a Human Cellular Senescence array (SA Biosciences) was used for senescence phenotype profiling.
CD44 expression was analyzed by flow cytometry in HUVECs transfected with miR-494 for 48 hours. Cells were washed in PBS and tripsinazed. Cells were incubated in blocking solution (0.5% BSA/10% goat serum) for 30 min and 1 hour in primary antibody-PEcy7 conjugated (CD44, BD, 560533) prepared in blocking solution. Then cells were washed in PBS 3×. Cells were analyzed in a CANTOII equipment.

[10] = system: ERK; assay: VEGF-dependent ERK phosphorylation (western blot); type: cell-based, human; conditions: HUVECs treated with VEGF (10 min)
[11] = system: VEGF-early gene signature; assay: VEGF-early response gene expression; type: cell-based, human; conditions: HUVEC, VEGF 50 ng/ml
Experimental: HUVECs were transfected for a total of 48 hours. At 24 hours cells were starved overnight and then treated 3 hours with VEGF (50 ng/ml). Graphs depict mean mRNA levels+SEM.
as §2

[12] = system: MRE11a, RAD50 and NBN; assay: Target validation in HUVEC (Western blot, qPCR); type: cell-based, human; conditions: qPCR and immunofluorescence
Experimental: as §1, with “Blots were scanned on the Licor Odyssey scanner according to manufacturer's instructions.” left out
Total RNA and microRNA were isolated using miRVana microRNA isolation kit (Ambion). […] The relative quantification of gene expression was determined using the 2-DDCtmethod. […]

[13] = system: Matrigel plugs in nu/nu mice; assay: Matrigel plug angiogenesis assay in vivo
Experimental: as §2
In some experiments, CD31a and Mre11a were visualized using immunofluorescence staining from OCT sections of tumor tissue. Slides were fixed with 4% PFA and stained overnight for CD31, Mre11a, or ASMC. Imaging was performed on a Nikon Spectral C1 confocal microscope (Nikon C1si with EZC1 acquisition software, Nikon Instruments) with Plan Apo 10×/0.45 air, Plan Apo 20×/0.75 air, and Plan Apo 60×/1.40 oil objective lenses (Nikon). Some immunofluorescence imaging was performed on a Yokogawa CSU-W1 spinning disk confocal microscope with 20 0.45 Plan Fluor objective (Nikon). All images were taken with a channel series. Images were analysed with Image J software for quantitation.
Immune-compromised 8-10 week old female nu/nu mice purchased from Jackson Labs. Growth factor reduced Matrigel (BD) with 400 ng ml 1 recombinant human bFGF (Millipore) was injected subcutaneously in nu/nu mice. Mice were injected i.v with 7C1-nanoparticles containing miR-494 or control miR (0.7 mg/kg, i.v) 3 or 4 days after plugs were implanted. At day 7 mice were harvest and lysed to obtained RNA or frozen in OCT for tissue staining.

[14] = system: breast cancer cell; assay: Breast cancer cell proliferation in 2D and 3D assays; type: cell-based; conditions: ectopic expression
[15] = system: murine 4T1 tumors; assay: Orthotopic 4T1 tumor growth; type: in vivo; conditions: implanted orthotopically in Balb/C mice
Source text: FIG. 5C is a graph of 4T1 tumor weights on day 21 after orthotopic mammary fat pad implantation of either control or miR-494-3p transfected tumors. N=8 mice per group and * indicates P<0.05.

Molecule	senescence (β-galactosidase positive cells) ([1]; HUVEC)	senescence phenotype in old HUVECs [1]	telomerase activity [2]	sprouting angiogenesis [3]	enrichment of target mRNAs in RISC pulldown relative to controls [4]	luciferase expression from 3'-UTR reporter vectors [5]	proliferation relative to controls [6]	proliferation in old HUVECs [6]	apoptosis [7]	expression of cell cycle regulator p21 [8]	expression of CD44, a marker of senescence [9]	phosphorylation of ERK [10]	protein expression of target mRNAs (MRE11a, RAD50, NBN) [12]	also measured
miR-99b: Human miR-99b-5p (SEQ ID NO: 3), used as miR mimic (sense CACCCGUAGAACCGACCUUGCG; listed as RNA, chemistry not given here; listed as Homo sapiens)	higher number of β-galactosidase positive cells	restored a senescence phenotype	Impaired telomerase activity	inhibited sprouting angiogenesis	only MRE11a was enriched	Significantly less luciferase expression	less proliferation	without dramatically changing proliferation	no effect on apoptosis	greater expression	induced expression of CD44	lower rate of phosphorylation of ERK	Blocking of protein expression	senescence (β-galactosidase positive cells) ([1]; HUVEC, listed as miR-99b-5p): lead to endothelial senescence; telomerase activity ([2]; listed as miR-99b-5p): impairing telomerase function; sprouting angiogenesis ([3]; listed as miR-99b-5p): inhibit sprouting angiogenesis; specific-VEGF-early gene signature [11]: block a specific-VEGF-early gene signature
miR-494: Human miR-494-3p (SEQ ID NO: 1), used as miR mimic; in vivo delivered in 7C1 nanoparticles (sense UGAAACAUACACGGGAAACCUC; delivered in vivo in 7C1 nanoparticles, further chemistry not given here; listed as Homo sapiens)	higher number of β-galactosidase positive cells	restored a senescence phenotype	Impaired telomerase activity	inhibited sprouting angiogenesis	enrichment of all of MRE11a, RAD50, and NBN	Significantly less luciferase expression	less proliferation	without dramatically changing proliferation	no effect on apoptosis	greater expression	induced expression of CD44		Blocking of protein expression	senescence (β-galactosidase positive cells) ([1]; HUVEC, listed as miR-494-3p): lead to endothelial senescence; telomerase activity ([2]; listed as miR-494-3p): impairing telomerase function; sprouting angiogenesis ([3]; listed as miR-494-3p): inhibit sprouting angiogenesis; Pecam1 mRNA expression in plugs relative to controls ([13]; Matrigel plugs, 7C1 nanoparticles): lower expression; less CD31 staining relative to controls ([13]; Matrigel plugs, miR delivered with endothelial targeted nanoparticle 7C1, 0.7 mg/kg i.v.): 50%; Mre11a mRNA expression in plugs ([13]; RNA isolated from Matrigel plugs, 7C1 nanoparticles): significantly less Mre11a expression; breast cancer cell proliferation [14]: diminished breast cancer cell proliferation; growth of 4T1 tumors [15]: decreased the growth
N=C1NC(=O)/C(=C/c2ccc(O)cc2)S1 [Mirin-1, reference compound]												decreased ERK phosphorylation		senescence ([1]; HUVEC, 50 uM, after 24 hours): induce senescence
miR-21-3p: Human miR-21-3p (SEQ ID NO: 2), used as miR mimic (sense CAACACCAGUCGAUGGGCUGU; listed as RNA, chemistry not given here; listed as Homo sapiens)	lead to endothelial senescence		impairing telomerase function	inhibit sprouting angiogenesis										
